Test system: Male Zucker Diabetic Fatty rats
Experiment: In vivo evaluation in Zucker Diabetic Fatty rats
Set-up: species or system rat
Details: oral gavage b.i.d., 7 days, percent reduction from vehicle control at day 7 relative to normalization (plasma glucose 140 mg/dL)
Description: Male Zucker Diabetic Fatty rats were lightly anesthetized with isofluorane gas and bleed by tail vein to obtain postprandial baseline concentrations for plasma glucose, serum lipids and insulin. Animals were baseline matched by plasma glucose and randomized into vehicle or treatment groups with compound administration by oral gavage, b.i.d., beginning at 8.5 weeks of age. Selected compounds were administered as a suspension in 0.5% methylcellulose for 7 consecutive days. Changes in body weight and food consumption were monitored from representative animals from each group, over a 48 hr period. After 7 days of treatment animals were anesthetized, blood samples obtained and analyzed for plasma glucose and lactate, serum triglyceride, total and HDL cholesterol, non-esterified free fatty acids and insulin concentration. Livers were weighed and corrected for body weight. Values in Table 1 for % Glucose reduction represent a summary of the percent reduction from vehicle control animals at day 7 relative to normalization defined in this model as plasma glucose levels of 140 mg/dL.

Row | Structure (SMILES) | % Glucose Reduction [%]
1 | C/C(=C/C(=O)c1ccccc1)N[C@@H](Cc1ccc(OCCc2nc(-c3ccccc3)oc2C)cc1)C(=O)O [Example 1, (2S)-2{[(Z)-1-methyl-3-oxo-3-phenyl-1-propenyl]amino}-3-{4-[2-(5-methyl-2-phenyl-1,3-oxazol-4-yl)ethoxy]phenyl}propanoic acid] | 39
2 | C/C(=C/C(=O)c1ccccc1)N[C@@H](Cc1ccc(OCCc2nc(-c3ccc(C(F)(F)F)cc3)oc2C)cc1)C(=O)O [Example 7, (2S)-2-{[(Z)-1-methyl-3-oxo-3-phenyl-1-propenyl]amino}-3-[4-(2-{5-methyl-2-[4-(trifluoromethyl)phenyl]-1,3-oxazol-4-yl}ethoxy)phenyl]propanoic acid] | 34
3 | C/C(=C/C(=O)c1ccc(F)c(F)c1F)N[C@@H](Cc1ccc(OCCc2nc(-c3ccccc3)oc2C)cc1)C(=O)O [Example 12, (2S)-2-{[(Z)-1-methyl-3-oxo-3-(2,3,4-trifluorophenyl)-1-propenyl]amino}-3-{4-[2-(5-methyl-2-phenyl-1,3-oxazol-4-yl)ethoxy]phenyl}propanoic acid] | 61
4 | C/C(=C/C(=O)c1cc(F)c(F)cc1F)N[C@@H](Cc1ccc(OCCc2nc(-c3ccccc3)oc2C)cc1)C(=O)O [Example 16, (2S)-2-{[(Z)-1-methyl-3-oxo-3-(2,4,5-trifluorophenyl)-1-propenyl]amino}-3-{4-[2-(5-methyl-2-phenyl-1,3-oxazol-4-yl)ethoxy]phenyl}propanoic acid] | 59
5 | CC/C(=C/C(=O)c1ccccc1)N[C@@H](Cc1ccc(OCCc2nc(-c3ccccc3)oc2C)cc1)C(=O)O [Example 20, (2S)-2-{[(Z)-1-ethyl-3-oxo-3-phenyl-1-propenyl]amino}-3-{4-[2-(5-methyl-2-phenyl-1,3-oxazol-4-yl)ethoxy]phenyl}propanoic acid] | 50
6 | Cc1sc(-c2ccc(F)cc2)nc1CCOc1ccc(C[C@H](N/C(=C\C(=O)c2ccccc2)C(F)(F)F)C(=O)O)cc1 [Example 21, (2S)-3-(4-{2-[2-(4-fluorophenyl)-5-methyl-1,3-thiazol-4-yl]ethoxy}phenyl)-2-{[(Z)-3-oxo-3-phenyl-1-(trifluoromethyl)-1-propenyl]amino}propanoic acid] | 82
7 | CC/C(=C/C(=O)c1ccc(C(F)(F)F)cc1)N[C@@H](Cc1ccc(OCCc2nc(-c3ccc(F)cc3)sc2C)cc1)C(=O)O [Example 22, (2S)-2-({(Z)-1-ethyl-3-oxo-3-[4-(trifluoromethyl)phenyl]-1propenyl}amino)-3-(4-{2-[2-(4-fluorophenyl)-5-methyl-1,3-thiazol-4-yl]ethoxy}phenyl)propanoic acid] | 49
8 | CCCC/C(=C/C(=O)c1ccccc1)N[C@@H](Cc1ccc(OCCc2nc(-c3ccccc3)oc2C)cc1)C(=O)O [Example 23, (2S)-2-{[(Z)-1-butyl-3-oxo-3-phenyl-1-propenyl]amino}-3-{4-[2-(5-methyl-2-phenyl-1,3-oxazol-4-yl)ethoxy]phenyl}propanoic acid] | 86
9 | C/C(=C/C(=O)c1ccc(Cl)cc1)N[C@@H](Cc1ccc(OCCc2nc(-c3ccccc3)oc2C)cc1)C(=O)O [Example 24, (2S)-2-{[(Z)-3-(4-chlorophenyl)-1-methyl-3-oxo-1-propenyl]amino}-3-{4-[2-(5-methyl-2-phenyl-1,3-oxazol-4-yl)ethoxy]phenyl}propanoic acid] | 45
10 | CCC/C(=C/C(=O)c1ccccc1)N[C@@H](Cc1ccc(OCCc2nc(-c3ccccc3)oc2C)cc1)C(=O)O [Example 40] | 79
11 | Cc1oc(-c2ccccc2)nc1CCOc1ccc(C[C@H](N/C(=C\C(=O)c2ccccc2)C(F)(F)F)C(=O)O)cc1 [Example 48, (2S)-3-{4-[2-(5-methyl-2-phenyl-1,3-oxazol-4-yl)ethoxy]phenyl}-2{[(Z)-3-oxo-3-phenyl-1-(trifluoromethyl)-1-propenyl]amino}propanoic acid] | 81

Reference: patent US6498174B1, “Substituted oxazoles and thiazoles derivatives as hPPARγ and hPPARα activators” (SmithKline Beecham Corporation, priority 1998, dated 2002)
